Species: Rattus norvegicus
Assay: DrugMatrix - Regimen: Daily Repeat
Assay type: toxicity, organism-based, Sprague-Dawley
Set-up: regimen Daily Repeat, gender Male, age 6-8 weeks
Details: in vivo, sc, 0 mg/kg, route mini-PUMP - SUBCUTANEOUS, dose level Control, vehicle 100 % SALINE; for ABSOLUTE BASOPHIL / ABSOLUTE EOSINOPHIL / ABSOLUTE LYMPHOCYTE / ABSOLUTE MONOCYTE / ABSOLUTE SEGMENTED NEUTROPHIL / BASOPHIL / EOSINOPHIL / ERYTHROCYTE COUNT / HEMATOCRIT / HEMOGLOBIN / LEUKOCYTE COUNT / LYMPHOCYTE / MEAN CORPUSCULAR HEMOGLOBIN / MEAN CORPUSCULAR HEMOGLOBIN CONCENTRATION / MEAN CORPUSCULAR VOLUME / MONOCYTE / NEUTROPHIL / NUCLEATED RED BLOOD CELLS / PLATELET COUNT: tissue Blood; for ALANINE AMINOTRANSFERASE / ALBUMIN / ALKALINE PHOSPHATASE / ASPARTATE AMINOTRANSFERASE / BLOOD UREA NITROGEN / CARBON DIOXIDE / CHLORIDE / CHOLESTEROL / CREATININE / GLUCOSE / LACTATE DEHYDROGENASE / LIPASE / PHOSPHORUS / POTASSIUM / SODIUM / TOTAL BILIRUBIN / TOTAL PROTEIN / URIC ACID: tissue Plasma

Compound: CNC[C@H](O)c1cccc(O)c1 [PHENYLEPHRINE]
- ABSOLUTE BASOPHIL (72 h, time 3 day): 0 CELLS/uL
- ABSOLUTE EOSINOPHIL (72 h, time 3 day): 77.17 CELLS/uL
- ABSOLUTE LYMPHOCYTE (72 h, time 3 day): 14293.83 CELLS/uL
- ABSOLUTE MONOCYTE (72 h, time 3 day): 354 CELLS/uL
- ABSOLUTE SEGMENTED NEUTROPHIL (72 h, time 3 day): 1658.33 CELLS/uL
- BASOPHIL (72 h, time 3 day): 0%
- EOSINOPHIL (72 h, time 3 day): 0.5%
- ERYTHROCYTE COUNT (72 h, time 3 day): 6.27 x10E6/uL
- HEMATOCRIT (72 h, time 3 day): 36.95%
- HEMOGLOBIN (72 h, time 3 day): 13.4 G/DL
- LEUKOCYTE COUNT (72 h, time 3 day): 16.38 x10E3/uL
- LYMPHOCYTE (72 h, time 3 day): 87.17%
- MEAN CORPUSCULAR HEMOGLOBIN (72 h, time 3 day): 21.42 pg
- MEAN CORPUSCULAR HEMOGLOBIN CONCENTRATION (72 h, time 3 day): 36.27 G/DL
- MEAN CORPUSCULAR VOLUME (72 h, time 3 day): 59.03 fL
- MONOCYTE (72 h, time 3 day): 2%
- NEUTROPHIL (72 h, time 3 day): 10.33%
- NUCLEATED RED BLOOD CELLS (72 h, time 3 day): 0 /100WBC
- PLATELET COUNT (72 h, time 3 day): 904.67 x10E3/uL
- ALANINE AMINOTRANSFERASE (72 h, time 3 day): 48.33 u/L
- ALBUMIN (72 h, time 3 day): 3.82 G/DL
- ALKALINE PHOSPHATASE (72 h, time 3 day): 282.33 u/L
- ASPARTATE AMINOTRANSFERASE (72 h, time 3 day): 86.83 u/L
- BLOOD UREA NITROGEN (72 h, time 3 day): 20.17 mg/dL
- CARBON DIOXIDE (72 h, time 3 day): 34.67 mmol/L
- CHLORIDE (72 h, time 3 day): 102 MEQ/L
- CHOLESTEROL (72 h, time 3 day): 71.5 mg/dL
- CREATININE (72 h, time 3 day): 0.2 mg/dL
- GLUCOSE (72 h, time 3 day): 136.83 mg/dL
- LACTATE DEHYDROGENASE (72 h, time 3 day): 159 u/L
- LIPASE (72 h, time 3 day): 9 u/L
- PHOSPHORUS (72 h, time 3 day): 10.12 mg/dL
- POTASSIUM (72 h, time 3 day): 5.92 MEQ/L
- SODIUM (72 h, time 3 day): 147.8 MEQ/L
- TOTAL BILIRUBIN (72 h, time 3 day): 0.2 mg/dL
- TOTAL PROTEIN (72 h, time 3 day): 6.05 G/DL
- URIC ACID (72 h, time 3 day): 1.4 mg/dL
- ABSOLUTE BASOPHIL (120 h, time 5 day): 0 CELLS/uL
- ABSOLUTE EOSINOPHIL (120 h, time 5 day): 0 CELLS/uL
- ABSOLUTE LYMPHOCYTE (120 h, time 5 day): 14257.33 CELLS/uL
- ABSOLUTE MONOCYTE (120 h, time 5 day): 326 CELLS/uL
- ABSOLUTE SEGMENTED NEUTROPHIL (120 h, time 5 day): 3216.67 CELLS/uL
- BASOPHIL (120 h, time 5 day): 0%
- EOSINOPHIL (120 h, time 5 day): 0%
- ERYTHROCYTE COUNT (120 h, time 5 day): 6.11 x10E6/uL
- HEMATOCRIT (120 h, time 5 day): 36.22%
- HEMOGLOBIN (120 h, time 5 day): 13.18 G/DL
- LEUKOCYTE COUNT (120 h, time 5 day): 17.8 x10E3/uL
- LYMPHOCYTE (120 h, time 5 day): 80.5%
- MEAN CORPUSCULAR HEMOGLOBIN (120 h, time 5 day): 21.62 pg
- MEAN CORPUSCULAR HEMOGLOBIN CONCENTRATION (120 h, time 5 day): 36.42 G/DL
- MEAN CORPUSCULAR VOLUME (120 h, time 5 day): 59.37 fL
- MONOCYTE (120 h, time 5 day): 1.83%
- NEUTROPHIL (120 h, time 5 day): 17.67%
- NUCLEATED RED BLOOD CELLS (120 h, time 5 day): 0 /100WBC
- PLATELET COUNT (120 h, time 5 day): 1311 x10E3/uL
- ALANINE AMINOTRANSFERASE (120 h, time 5 day): 47 u/L
- ALBUMIN (120 h, time 5 day): 3.83 G/DL
- ALKALINE PHOSPHATASE (120 h, time 5 day): 260.33 u/L
- ASPARTATE AMINOTRANSFERASE (120 h, time 5 day): 76.17 u/L
- BLOOD UREA NITROGEN (120 h, time 5 day): 14.67 mg/dL
- CARBON DIOXIDE (120 h, time 5 day): 31.33 mmol/L
- CHLORIDE (120 h, time 5 day): 101.17 MEQ/L
- CHOLESTEROL (120 h, time 5 day): 75 mg/dL
- CREATININE (120 h, time 5 day): 0.16 mg/dL
- GLUCOSE (120 h, time 5 day): 152.67 mg/dL
- LACTATE DEHYDROGENASE (120 h, time 5 day): 147.33 u/L
- LIPASE (120 h, time 5 day): 9.33 u/L
- PHOSPHORUS (120 h, time 5 day): 10.97 mg/dL
- POTASSIUM (120 h, time 5 day): 6 MEQ/L
- SODIUM (120 h, time 5 day): 145.52 MEQ/L
- TOTAL BILIRUBIN (120 h, time 5 day): 0.17 mg/dL
- TOTAL PROTEIN (120 h, time 5 day): 5.83 G/DL
- URIC ACID (120 h, time 5 day): 1.27 mg/dL
- ABSOLUTE BASOPHIL ([…], time 14 day): 0 CELLS/uL
- ABSOLUTE EOSINOPHIL ([…], time 14 day): 64.5 CELLS/uL
- ABSOLUTE LYMPHOCYTE ([…], time 14 day): 12507.83 CELLS/uL
- ABSOLUTE MONOCYTE ([…], time 14 day): 380.33 CELLS/uL
- ABSOLUTE SEGMENTED NEUTROPHIL ([…], time 14 day): 2414 CELLS/uL
- BASOPHIL ([…], time 14 day): 0%
- EOSINOPHIL ([…], time 14 day): 0.5%
- ERYTHROCYTE COUNT ([…], time 14 day): 6.1 x10E6/uL
- HEMATOCRIT ([…], time 14 day): 35.4%
- HEMOGLOBIN ([…], time 14 day): 12.88 G/DL
- LEUKOCYTE COUNT ([…], time 14 day): 15.37 x10E3/uL
- LYMPHOCYTE ([…], time 14 day): 80.83%
- MEAN CORPUSCULAR HEMOGLOBIN ([…], time 14 day): 21.18 pg
- MEAN CORPUSCULAR HEMOGLOBIN CONCENTRATION ([…], time 14 day): 36.43 G/DL
- MEAN CORPUSCULAR VOLUME ([…], time 14 day): 58.17 fL
- MONOCYTE ([…], time 14 day): 2.17%
- NEUTROPHIL ([…], time 14 day): 16.5%
- NUCLEATED RED BLOOD CELLS ([…], time 14 day): 0.17 /100WBC
- PLATELET COUNT ([…], time 14 day): 1016 x10E3/uL
- ALANINE AMINOTRANSFERASE ([…], time 14 day): 53.33 u/L
- ALBUMIN ([…], time 14 day): 3.93 G/DL
- ALKALINE PHOSPHATASE ([…], time 14 day): 319.83 u/L
- ASPARTATE AMINOTRANSFERASE ([…], time 14 day): 84 u/L
- BLOOD UREA NITROGEN ([…], time 14 day): 15.5 mg/dL
- CARBON DIOXIDE ([…], time 14 day): 34 mmol/L
- CHLORIDE ([…], time 14 day): 101.83 MEQ/L
- CHOLESTEROL ([…], time 14 day): 57 mg/dL
- CREATININE ([…], time 14 day): 0.21 mg/dL
- GLUCOSE ([…], time 14 day): 182.33 mg/dL
- LACTATE DEHYDROGENASE ([…], time 14 day): 104.67 u/L
- LIPASE ([…], time 14 day): 9.17 u/L
- PHOSPHORUS ([…], time 14 day): 11.12 mg/dL
- POTASSIUM ([…], time 14 day): 5.81 MEQ/L
- SODIUM ([…], time 14 day): 144.85 MEQ/L
- TOTAL BILIRUBIN ([…], time 14 day): 0.18 mg/dL
- TOTAL PROTEIN ([…], time 14 day): 5.92 G/DL
- URIC ACID ([…], time 14 day): 1.38 mg/dL

Reference: ChEMBL document CHEMBL3885881, “DrugMatrix”
